# Test results taken from patent US20150148235A1, “HERBICIDE-RESISTANT SUNFLOWER PLANTS WITH MULTIPLE HERBICIDE RESISTANT ALLELES OF AHASL1 AND METHODS OF USE” (NIDERA S.A., priority 2013, published 2015).
# Where two headings read alike, the source gives them in different places.
# Experiments:
# [1] = tested on: AHAS enzyme, A122T/A205V Heterozygous sunflower; assay: AHAS enzyme activity assay, leaf extract; format: biochemical, Helianthus annuus; conditions: A122T/A205V heterozygous hybrid (Set 1); 100 μM
# Procedure: (§1) Twelve greenhouse grown sunflower plants from each of the lines depicted in Table 21 were bulked and subjected to an AHAS enzyme activity assay via the method of Singh et al. (1988) Anal. Biochem. 171:173-179. Each activity assay was repeated twice. Due to the large number of samples, the experiment was split into two sets (Table 21).
# (§2) Young, actively growing leaves, from four week old plantlets, were ground in a mortar and pestle with liquid N2 and extracted with a buffer composed of 100 mM Pyruvate, 200 mM KH2PO4, 20 mM MgCl2, 2 mM thiamine pyrophosphate and […]. Plant extracts were then spun through a 10 mL Zeba TM desalt spin column (Pierce #89893) as per the manufacturer's recommendation. The inhibition assay was performed as described by Singh et al. (1988) Anal. Biochem. 171:173-179. Assays were conducted in a 96-well format. Fifty μl of inhibitor was added to each well containing 50 μl of soluble protein extract to give final concentrations of 0.78, 1.56, 3.125, 6.25, 12.5, 25, 50 and 100 μM imazamox or 0.78, 1.56, 3.125, 6.25, 12.5, 25, 50 and 100 μM imazapyr. Zero herbicide controls were also included for each line. Reactions were processed as outlined by Singh et al. (1988) Anal. Biochem. 171:173-179. Absorbance was measured at 530 nm. AHAS activity, expressed as the mean of the absorbance values for each treatment, was presented as a percentage of the mean of the zero-herbicide controls.
# [2] = tested on: AHAS enzyme, A122T Homozygous sunflower; assay: AHAS enzyme activity assay, leaf extract; format: biochemical, Helianthus annuus; conditions: A122T homozygous hybrid (Set 1); 100 μM
# Procedure: as §1, §2
# [3] = tested on: AHAS enzyme, A205V Homozygous sunflower; assay: AHAS enzyme activity assay, leaf extract; format: biochemical, Helianthus annuus; conditions: A205V homozygous hybrid (Set 1); 100 μM
# Procedure: as §1, §2
# [4] = tested on: sunflower hybrids and lines (A122T, A205V, A205V/A122T); assay: Field trial North Dakota 2006, phytotoxicity ratings after imazamox or imazapyr, Example 3; format: in vivo, Helianthus annuus; conditions: for Phytotoxicity Rating (% Crop Injury): 160 g ai/ha + 0.25% NIS
# Procedure: • Spray volume: 10 gallons per acre (GPA) (or 100 liters/ha) for backpack sprayer or 20 GPA (or 200 liters/ha) for tractor mounted boom • Growth Stage at Herbicide Application: 2-4 leaves
# Entry 15 (WT Maintainer line) was left unsprayed in all treatment blocks.
# Phytotoxicity ratings were assessed at 7 and 21 days following herbicide application.
# The data was subjected to an ANOVA analysis and the means from the 3 repetitions are presented in Table 7 (phytotoxicity at 7 days post-treatment) and Table 8 (phytotoxicity at 21 days post-treatment).
# [5] = tested on: sunflower GM40 (A122T), HA425 (A205V) and progeny; format: in vivo, Helianthus annuus
# Procedure: To determine the phenotypic interactions of the resistance gene A122T and the Imr1 gene (A205V) already described in IMI-R sunflowers (HA425), F1, F2 and BC1F1 populations from the cross GM40 (A122T)/HA425 (A205V) were evaluated at two herbicide applications rates (80 and 320 g. a. i. Ha^−1 of imazapyr). […] When F2 and BC1F1 populations were scored at the higher herbicide rate (320 g. a. i. Ha-1), which discriminates both parents, segregation for susceptibility was observed. Only two phenotypic classes could be detected, a resistant class with plants without any injury or slight symptoms and a susceptible phenotype that was killed like the control line HA425.
# [6] = tested on: sunflower hybrids H1, H2, H3, H5, H6; conditions: in vivo
# [7] = tested on: sunflower hybrids H1, H2, H3, H5, H6; assay: Field trial Venado Tuerto 2006, imazapyr applied at V8 or R1 stage, Phytotoxicity Index, Example 4; conditions: for Mean Phytotoxicity Index (scale 0-50): H5 (L3 × WT, 122/Wild type), 160 g ai/ha applied at R1
structure (smiles),measurement,setting,value
CC(C)C1(C)N=C(c2ncccc2C(=O)O)NC1=O (centres unmarked) [imazapyr],AHAS activity,[1],60%
same,AHAS activity,[2],64 % of untreated control
same,AHAS activity,[3],42 % of untreated control
same,Phytotoxicity Rating (% Crop Injury),"[4]; 1-hybrid (WT × IMI restorer, A205 hetero), 7 DAT",16.7%
same,Phytotoxicity Rating (% Crop Injury),"[4]; 1-hybrid (WT × IMI restorer, A205 hetero), 21 DAT",20.0%
same,Phytotoxicity Rating (% Crop Injury),"[4]; 3-hybrid (WT × IMI restorer, A205 hetero), 7 DAT",35.0%
same,Phytotoxicity Rating (% Crop Injury),"[4]; 3-hybrid (WT × IMI restorer, A205 hetero), 21 DAT",43.3%
same,Phytotoxicity Rating (% Crop Injury),"[4]; 4-line (IMI Restorer, A205 homo), 7 DAT",11.7%
same,Phytotoxicity Rating (% Crop Injury),"[4]; 4-line (IMI Restorer, A205 homo), 21 DAT",6.7%
same,Phytotoxicity Rating (% Crop Injury),"[4]; 6-hybrid (IMI CMS × IMI restorer, A205 homo), 7 DAT",8.3%
same,Phytotoxicity Rating (% Crop Injury),"[4]; 6-hybrid (IMI CMS × IMI restorer, A205 homo), 21 DAT",3.3%
same,Phytotoxicity Rating (% Crop Injury),"[4]; 7-hybrid (WT-CMS × IMI restorer, A205 hetero), 7 DAT",21.7%
same,Phytotoxicity Rating (% Crop Injury),"[4]; 7-hybrid (WT-CMS × IMI restorer, A205 hetero), 21 DAT",36.7%
same,Phytotoxicity Rating (% Crop Injury),"[4]; 8-hybrid (WT × GM40 restorer, A122 hetero), 7 DAT",13.3%
same,Phytotoxicity Rating (% Crop Injury),"[4]; 8-hybrid (WT × GM40 restorer, A122 hetero), 21 DAT",11.7%
same,Phytotoxicity Rating (% Crop Injury),"[4]; 9-line (GM40 restorer, A122 homo), 7 DAT",8.3%
same,Phytotoxicity Rating (% Crop Injury),"[4]; 9-line (GM40 restorer, A122 homo), 21 DAT",5.0%
same,Phytotoxicity Rating (% Crop Injury),"[4]; 10-hybrid (IMI CMS × GM40 restorer, A205/A122 hetero/double), 7 DAT",3.3%
same,Phytotoxicity Rating (% Crop Injury),"[4]; 10-hybrid (IMI CMS × GM40 restorer, A205/A122 hetero/double), 21 DAT",0.0%
same,Phytotoxicity Rating (% Crop Injury),"[4]; 11-hybrid (GM40 CMS × IMI restorer, A205/A122 hetero/double), 7 DAT",3.3%
same,Phytotoxicity Rating (% Crop Injury),"[4]; 11-hybrid (GM40 CMS × IMI restorer, A205/A122 hetero/double), 21 DAT",0.0%
same,Phytotoxicity Rating (% Crop Injury),"[4]; 12-hybrid (IMI CMS × GM40 restorer, A205/A122 hetero/double), 7 DAT",5.0%
same,Phytotoxicity Rating (% Crop Injury),"[4]; 12-hybrid (IMI CMS × GM40 restorer, A205/A122 hetero/double), 21 DAT",1.7%
same,Phytotoxicity Rating (% Crop Injury),"[4]; 13-hybrid (GM40 CMS × GM40 restorer, A122 homo), 7 DAT",5.0%
same,Phytotoxicity Rating (% Crop Injury),"[4]; 13-hybrid (GM40 CMS × GM40 restorer, A122 homo), 21 DAT",1.7%
same,Phytotoxicity Rating (% Crop Injury),"[4]; 14-hybrid (GM40 CMS × GM40 restorer, A122 homo), 7 DAT",8.3%
same,Phytotoxicity Rating (% Crop Injury),"[4]; 14-hybrid (GM40 CMS × GM40 restorer, A122 homo), 21 DAT",3.3%
same,Phytotoxicity Rating (% Crop Injury),"[4]; 15-hybrid (WT × GM40 restorer, A122 hetero), 7 DAT",8.3%
same,Phytotoxicity Rating (% Crop Injury),"[4]; 15-hybrid (WT × GM40 restorer, A122 hetero), 21 DAT",21.7%
same,Phytotoxicity Rating (% Crop Injury),"[4]; 16-hybrid (WT × GM40 restorer, A122 hetero), 7 DAT",10.0%
same,Phytotoxicity Rating (% Crop Injury),"[4]; 16-hybrid (WT × GM40 restorer, A122 hetero), 21 DAT",23.3%
same,phytotoxicity,"[4]; heterozygous A205V entries, 160 g ai/ha, 21 DAT",20-43%
same,susceptible plants in F2 and BC1F1 populations of GM40 (A122T)/HA425 (A205V),"[5]; 80 g a.i./ha (1x, lower rate)",No susceptible plants were observed
same,response of control line HA425,"[5]; HA425 (A205V), 320 g a.i./ha",killed
same,Phytotoxicity Index (scale 0-50),[6],greater than 35
same,Mean Phytotoxicity Index (scale 0-50),[7]; 14 DAT,11.7
same,Mean Phytotoxicity Index (scale 0-50),[7]; 21 DAT,23.3
same,Phytotoxicity Index (scale 0-50),"[7]; hybrids with at least one A122T allele (A122T/A122T, A122T/A205V, A122/WT), 160 g ai/ha at R1, 14 DAT",less than 11.7
